Test results: ChEMBL document CHEMBL4619798, “Bioreducible Phosphonoamidate Pro-drug Inhibitor of Enolase: Proof of Concept Study” (ACS Med Chem Lett, 2020)

Columns and labels:
[1] = Cytotoxicity against human D423 cells with ENO1 deficient assessed as reduction in cell viability incubated for 5 days by crystal violet staining based spectrophotometry; conditions: 120 h
[2] = Cytotoxicity against human D423 cells with ENO1 deficient assessed as reduction in cell viability incubated for 5 days in presence of 21 % oxygen by crystal violet staining based spectrophotometry; conditions: 120 h
[3] = Cytotoxicity against human D423 cells with ENO1 deficient assessed as reduction in cell viability incubated for 5 days in presence of 1 % oxygen by crystal violet staining based spectrophotometry; conditions: 120 h
[4] = Stability in human plasma assessed as formation of monoester metabolite measured at less than 30 mins by NMR analysis; type: ADME, cell-free; conditions: 0.5 h
[5] = Stability in human plasma assessed as formation of monoester metabolite measured upto 22 hrs by NMR analysis; type: ADME, cell-free

Row | Stability [5] | Structure (SMILES) | IC50 [1] [µM] | IC50 [2] [µM] | IC50 [3] [µM] | Stability [4]
1 |  | O=C1C(P(=O)(O)O)CCCN1O (stereo unspecified) | 11.8 |  |  | 
2 |  | CC(C)(C)C(=O)OCOP(=O)(OCOC(=O)C(C)(C)C)C1CCCN(O)C1=O (stereo unspecified) | 0.038 | 0.079 | 0.201 | Unstable
3 | Stable | CC(=O)ON1CCCC(P(=O)(NCc2ccccc2)OCc2ccc([N+](=O)[O-])o2)C1=O (stereo unspecified) |  | 0.299 | 0.136 | 
4 |  | CC(C)(C)C(=O)OCOP(=O)(NCc1ccccc1)C1CCCN(O)C1=O (stereo unspecified) | 0.098 |  |  | 
5 |  | Cn1c(COP(=O)(NCCBr)NCCBr)cnc1[N+](=O)[O-] [EVOFOSFAMIDE] |  | 3.2 | 0.404 | 
